Assay results taken from patent US8580842B2, “Heteroaryl-substituted 1,3-dihydroindol-2-one derivatives and medicaments containing them” (Abbott GmbH & Co. KG, priority 2003, dated 2013).
Where a name gives a salt, the structure may show the parent alone.

Molecular target: T1, human V1b receptors (Homo sapiens, UniProt P47901)
T1 construct: expressed in transfected cells; host or cells: CHO-K1 (membrane preparation V1b-3H2)
T1 sequence (P47901 1-424): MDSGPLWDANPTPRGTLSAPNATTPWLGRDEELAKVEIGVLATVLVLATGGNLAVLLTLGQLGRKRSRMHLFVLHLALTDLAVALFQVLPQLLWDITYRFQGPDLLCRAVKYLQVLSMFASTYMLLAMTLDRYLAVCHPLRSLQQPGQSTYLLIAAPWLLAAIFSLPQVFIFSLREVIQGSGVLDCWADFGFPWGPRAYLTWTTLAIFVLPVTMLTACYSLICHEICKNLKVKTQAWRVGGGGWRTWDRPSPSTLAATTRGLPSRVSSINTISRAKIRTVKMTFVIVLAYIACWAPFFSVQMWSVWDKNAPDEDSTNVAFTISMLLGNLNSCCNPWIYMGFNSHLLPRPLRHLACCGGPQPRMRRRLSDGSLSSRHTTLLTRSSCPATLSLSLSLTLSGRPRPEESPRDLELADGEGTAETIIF
Experiment: Vasopressin V1b receptor binding assay
Conditions: membranes from CHO-K1 cells expressing human V1b receptors, displacement of 1.5 nM 3H-AVP; read-out: Binding affinity for the vasopressin V1b receptor
Procedure: Vasopressin V1b Receptor Binding Assay
The binding of the compounds of this invention to the vasopressin V1b receptor was determined with the following assay:
Compounds were dissolved in a concentration of 10^−2 M or 10^−3 M in DMSO. Further dilutions were performed with water.
The procedure for the binding assay was based on the method of Tahara et al. (Tahara A et al., Brit. J. Pharmacol. 125, 1463-1470 (1998)). Assays (0.250 ml) consisted of membranes (58 μg protein) from CHO-K1 cells permanently expressing human V1b receptors (preparation V1b-3H2, containing protease inhibitors, Roche complete Mini #1836170), 1.5 nM ^3H-AVP (8-Arg-vasopressin, NET 800) in incubation buffer (total binding) and different concentrations of test compound (displacement). Non-specific binding was defined with 10^−6 M AVP. Assays were performed in triplicate.
Incubation buffer: 50 mM Tris, 10 mM MgCl2, 0.1% BSA adjusted to pH 7.4 with HCl.
After incubation, 60 min at room temperature, bound and free radioligand was separated by filtration under vacuum through Whatman GF/B glass fibre mats using a Skatron cell harvester 7000.
Liquid scintillation counting was performed in beta-counters, Tricarb model 2000 or 2200CA (Packard). Dpm were calculated by a programme with standardisation using a standard quench series.
Evaluation of binding parameters was performed by non-linear regression analysis with SAS. The strategy of this program is similar to the program LIGAND described by Munson and Rodbard (Munson PJ and Rodbard D, Analytical Biochem 107, 220-239 (1980)).

| SMILES | Ki [nM] |
| --- | --- |
| COc1ncccc1C1(N2C[C@H](O)C[C@H]2C(=O)N(C)C)C(=O)N(S(=O)(=O)c2cccc3cccnc23)c2ccc(Cl)cc21 (single isomer, unassigned) [Example 288] | < 50 |
| COc1ccccc1C1(N2C[C@H](O)C[C@H]2C(=O)N(C)C)C(=O)N(S(=O)(=O)c2sc(Cl)cc2Br)c2ccc(Cl)cc21 (single isomer, unassigned) [Example 32] | 50 to 500 |
| COc1ccc(S(=O)(=O)N2C(=O)C(c3ccc(OC)nc3OC)(N3C[C@H](O)C[C@H]3C(=O)N(C)C)c3cc(Cl)ccc32)c(OC)c1 (single isomer, unassigned) [Example 238] | < 50 |
| COc1ccc(S(=O)(=O)N2C(=O)C(c3ncccc3C)(N3C[C@H](O)C[C@H]3C(=O)N(C)C)c3cc(Cl)ccc32)c(OC)c1 (single isomer, unassigned) [Example 222] | < 50 |
| COc1ccc(S(=O)(=O)N2C(=O)C(N[C@@H](C)C(=O)N(C)C)(c3cccnc3OC)c3cc(Cl)ccc32)c(OC)c1 (single isomer, unassigned) [Example 221] | < 50 |
| COc1ccccc1C1(N2C[C@H](O)C[C@H]2C(=O)N(C)C)C(=O)N(S(=O)(=O)c2ccc(Br)cn2)c2ccc(Cl)cc21 (single isomer, unassigned) [Example 48] | < 50 |
| COc1ccc(S(=O)(=O)N2C(=O)C(OC(=O)Nc3ccc(Cl)cc3)(c3sccc3C)c3cc(Cl)ccc32)c(OC)c1 (stereo not shown) [Example 63, (4-Chloro-phenyl)-carbamic acid 5-chloro-1-(2,4-dimethoxy-benzenesulfonyl)-3-(3-methyl-thiophen-2-yl)-2-oxo-2,3-dihydro-1H-indol-3-ylester] | > 500 |
| COc1ccccc1C1(N2C[C@H](O)C[C@H]2C(=O)N(C)C)C(=O)N(S(=O)(=O)c2ncc(Br)cc2C)c2ccc(Cl)cc21 (single isomer, unassigned) [Example 53] | < 50 |
| COc1ncc(C2(N3C[C@H](O)C[C@H]3C(=O)N(C)C)C(=O)N(S(=O)(=O)c3cccs3)c3ccc(Cl)cc32)c(OC)n1 (single isomer, unassigned) [Example 281] | 50 to 500 |
| COc1ccc(S(=O)(=O)N2C(=O)C(c3cccnc3OC)(N3C[C@H](O)C[C@H]3C(=O)N(C)C)c3ccccc32)c(OC)c1 (single isomer, unassigned) [Example 225] | 50 to 500 |
| COc1ccccc1C1(N2C[C@H](O)C[C@H]2C(=O)N(C)C)C(=O)N(S(=O)(=O)c2ccc(N3CCOCC3)nc2)c2ccc(Cl)cc21 (single isomer, unassigned) [Example 56] | < 50 |
| COc1ccc(S(=O)(=O)N2C(=O)C(c3ccncc3OC)(N3C[C@H](O)C[C@H]3C(=O)N(C)C)c3cc(Cl)ccc32)c(OC)c1 (single isomer, unassigned) [Example 234] | < 50 |
| COc1ccc(S(=O)(=O)N2C(=O)C(c3cccnc3OC)(N3C[C@H](O)C[C@H]3C(=O)N(C)C)c3cc(OC)ccc32)c(OC)c1 (single isomer, unassigned) [Example 230, fumarate] | < 50 |
| COc1ccc(S(=O)(=O)N2C(=O)C(c3cnc(OC)nc3OC)(N3C[C@H](O)C[C@H]3C(=O)N(C)C)c3cc(Cl)ccc32)c(OC)c1 (single isomer, unassigned) [Example 3] | < 50 |
| COc1ccc(S(=O)(=O)N2C(=O)C(c3cccnc3OC)(N3CC=C[C@H]3C(=O)N(C)C)c3cc(Cl)ccc32)c(OC)c1 (mixture of isomers) [Example 247, (S)-1-[5-Chloro-1-(2,4-dimethoxy-benzenesulfonyl)-3-(2-methoxy-pyridin-3-yl)-2-oxo-2,3-dihydro-1H-indol-3-yl]-2,5-dihydro-1H-pyrrole-2-carboxylic acid dimethylamide] | < 50 |

Further lines, results first:

| Ki [nM] | SMILES |
| --- | --- |
| < 50 | COc1ccc(S(=O)(=O)N2C(=O)C(OC(=O)N3CCN(C4CCN(C)CC4)CC3)(c3cccnc3OC)c3cc(Cl)ccc32)cc1 (stereo not shown) [Example 115, 4-(1-Methyl-piperidin-4-yl)-piperazine-1-carboxylic acid 5-chloro-1-(4-methoxy-benzenesulfonyl)-3-(2-methoxy-pyridin-3-yl)-2-oxo-2,3-dihydro-1H-indol-3-yl ester diacetate] |
| < 50 | COc1ccc(S(=O)(=O)N2C(=O)C(c3cccnc3OC)(N3CCC[C@H]3C(=O)N(C)C)c3cc(Cl)ccc32)c(OC)c1 (single isomer, unassigned) [Example 227] |
| < 50 | COc1ccccc1C1(OC(=O)N2CCN(C3CCN(C)CC3)CC2)C(=O)N(S(=O)(=O)c2cccc3cccnc23)c2ccc(Cl)cc21 (stereo not shown) [Example 75, 4-(1-Methyl-piperidin-4-yl)-piperazine-1-carboxylic acid 5-chloro-3-(2-methoxy-phenyl)-2-oxo-1-(quinoline-8-sulfonyl)-2,3-dihydro-1H-indol-3-yl ester bismethanesulfonate] |
| < 50 | COc1ccccc1C1(OC(=O)N2CCN(C3CCN(C)CC3)CC2)C(=O)N(S(=O)(=O)c2ccccn2)c2ccc(C)cc21 (stereo not shown) [Example 127, 4-(1-Methyl-piperidin-4-yl)-piperazine-1-carboxylic acid 3-(2-methoxy-phenyl)-5-methyl-2-oxo-1-(pyridine-2-sulfonyl)-2,3-dihydro-1H-indol-3-yl ester dihydrochloride] |
| 50 to 500 | COc1ncccc1C1(OC(=O)N2CCN(C3CCN(C)CC3)CC2)C(=O)N(S(=O)(=O)c2ccc(C(F)(F)F)cc2)c2ccc(Cl)cc21 (stereo not shown) [Example 122, 4-(1-Methyl-piperidin-4-yl)-piperazine-1-carboxylic acid 5-chloro-3-(2-methoxy-pyridin-3-yl)-2-oxo-1-(4-trifluoromethyl-benzenesulfonyl)-2,3-dihydro-1H-indol-3-yl ester diacetate] |
| < 50 | COc1ccc(S(=O)(=O)N2C(=O)C(c3cccnc3OC)(N3C[C@H](O)C[C@H]3C(=O)N(C)C)c3cc(C#N)ccc32)cc1 (single isomer, unassigned) [Example 242] |
| < 50 | COc1ccc(S(=O)(=O)N2C(=O)C(c3cccnc3OC)(N3C[C@H](F)C[C@H]3C(=O)N(C)C)c3cc(Cl)ccc32)c(OC)c1 (single isomer, unassigned) [Example 246] |
| < 50 | COc1ccc(S(=O)(=O)N2C(=O)C(c3cccnc3OC)(N3CCCC[C@H]3C(=O)N(C)C)c3cc(Cl)ccc32)c(OC)c1 (single isomer, unassigned) [Example 237] |
| < 50 | CCOc1ccccc1C1(OC(=O)N2CCN(C3CCN(C)CC3)CC2)C(=O)N(S(=O)(=O)c2sccc2OC)c2ccc(Cl)cc21 (stereo not shown) [Example 143, 4-(1-Methyl-piperidin-4-yl)-piperazine-1-carboxylic acid 5-chloro-3-(2-ethoxy-phenyl)-1-(3-methoxy-thiophene-2-sulfonyl)-2-oxo-2,3-dihydro-1H-indol-3-yl ester] |
| < 50 | COc1ccc(S(=O)(=O)N2C(=O)C(OC(=O)N3CCC(N4CCN(C)CC4)CC3)(c3cccnc3OC)c3cc(C)ccc32)c(OC)c1 (stereo not shown) [Example 107, 4-(4-Methyl-piperazin-1-yl)-piperidine-1-carboxylic acid 1-(2,4-dimethoxy-benzenesulfonyl)-3-(2-methoxy-pyridin-3-yl)-5-methyl-2-oxo-2,3-dihydro-1H-indol-3-yl ester] |
| < 50 | COc1ncccc1C1(OC(=O)N2CCN(C3CCN(C)CC3)CC2)C(=O)N(S(=O)(=O)c2ccccc2)c2ccc(Cl)cc21 (stereo not shown) [Example 76, 4-(1-Methyl-piperidin-4-yl)-piperazine-1-carboxylic acid 1-benzenesulfonyl-5-chloro-3-(2-methoxy-pyridin-3-yl)-2-oxo-2,3-dihydro-1H-indol-3-yl ester] |
| < 50 | COc1ccc(S(=O)(=O)N2C(=O)C(c3cccnc3OC)(N3C[C@H](O)C[C@H]3C(=O)N(C)C)c3cc(Cl)ccc32)cc1 (single isomer, unassigned) [Example 240] |
| < 50 | CCOc1ccccc1C1(NC(=O)N2CCN(C3CCN(C)CC3)CC2)C(=O)N(S(=O)(=O)c2sccc2OC)c2ccc(OC)cc21 (stereo not shown) [Example 125, 4-(1-Methyl-piperidin-4-yl)-piperazine-1-carboxylic acid [3-(2-ethoxy-phenyl)-5-methoxy-1-(3-methoxy-thiophene-2-sulfonyl)-2-oxo-2,3-dihydro-1H-indol-3-yl]-amide] |
